The values that follow come from ChEMBL document CHEMBL3271995, “Antineoplastic agents. 2. Structure-activity studies on N-protected vinyl, 1,2-dibromoethyl, and cyanomethyl esters of several amino acids” (J Med Chem, 1977).

Active and inactive are the calls of the source. The calls are words filed in the database; no cut-off is given here.

Series [1] has as its system P388. Kind of series: Antitumor activity against mouse P388 cells allografted in DBA/2 mouse assessed as median survival time of treated versus control mice (T/C) at 20 mg/kg/day, ip. To be noted: route intraperitoneal. The format is functional.
Series [2] deals with Ehrlich. The series is described as follows: Antineoplastic activity against mouse EAC allografted in CF1 mouse assessed as packed cell volume on day 7 measured at 33 mg/kg (reference value: 32.75 +/- 7.87%). In kind it is functional.
In series [3] the test system is P388. The series is described as follows: Antitumor activity against mouse P388 cells allografted in DBA/2 mouse assessed as animal survival days at 20 mg/kg/day, ip. The format is functional. The note with it: route intraperitoneal.
The subject of series [4] is Ehrlich. Kind of series: Antineoplastic activity against mouse EAC allografted in CF1 mouse assessed as animal survival on day 7 measured at 33 mg/kg. The format is functional, organism-based. Also noted: dose 33 mg/kg.
In series [5] the test system is Ehrlich. Kind of series: Antineoplastic activity against mouse EAC allografted in CF1 mouse assessed as tumor growth inhibition on day 7 measured at 33 mg/kg. To be noted: 168 h, read-out: TGI. In kind it is functional.
Series [6] has as its system Ehrlich. The series is described as follows: Antineoplastic activity against mouse EAC allografted in CF1 mouse assessed as ascites volume on day 7 measured at 33 mg/kg (reference value: 4.1 +/- 1.24 mL). In kind it is functional.
Series [7] can be described thus: Acute toxicity in CF1 mouse. In kind it is organism-based. The note with it: in vivo.

A word on the T/C: it is the result in the treated group divided by that in the control group, in per cent. On to `Sc1ncnc2nc[nH]c12` [MERCAPTOPURINE ANHYDROUS], for which the T/C in the series with P388 [1] is recorded as 148%. In addition, the figures for the Activity in the series on Ehrlich [2] and in the series on Ehrlich [6] were 0.3% and 0.7 mL, respectively. Besides, in the series on P388 [3], the Survival turned out to be 12 days. In the series on Ehrlich [4], the outcome was Active. Also, the inhibition in vivo at 33 mg/kg with Ehrlich [5] was found to be 99.6%.
For the compound `CC=O`, the results for the Activity in the series with Ehrlich [2] and in the series with Ehrlich [6] were 56% and 2 mL, respectively. The inhibition in vivo at 33 mg/kg in the series on Ehrlich [5] was 43%.
`Cc1ccc(S(=O)(=O)N[C@@H](Cc2ccc(OS(=O)(=O)c3ccc(C)cc3)cc2)C(=O)OCC#N)cc1`: the figures for the Activity in the series on Ehrlich [2] and in the series on Ehrlich [6] were 6.5% and 0.8 mL, respectively. In addition, the result in the series with Ehrlich [4] was Active. For the same compound, the inhibition in vivo at 33 mg/kg in the series with Ehrlich [5] came to 53%.
For `O=C(O)C[C@H](NC(=O)OCc1ccccc1)C(=O)O`, the Activity was 21% in the series on Ehrlich [2] and 3.7 mL with Ehrlich [6]. Moreover, in the series with Ehrlich [4], the result was Active. In the series with Ehrlich [5], the inhibition in vivo at 33 mg/kg came out at 31%.
On to `N#CCOC(=O)[C@H](Cc1ccccc1)NC(=O)c1ccccc1`, for which the Activity in the series on Ehrlich [2] stood at 13.2%; in the series with Ehrlich [6], 1.8 mL. The inhibition in vivo at 33 mg/kg in the series with Ehrlich [5] stood at 47%.
As for `O=Cc1ccccc1` [BENZALDEHYDE], the Activity with Ehrlich [2] was determined as 49%; in the series on Ehrlich [6], 0.8 mL. In addition, in the series on Ehrlich [4], the result was Active. The inhibition in vivo at 33 mg/kg in the series with Ehrlich [5] amounted to 69%.
As usually defined, the LD50 is the dose at which mortality reaches 50%. Low readings indicate a more toxic substance, high ones a less toxic substance. On to `C=COC(=O)CC[C@H](NC(=O)OCc1ccccc1)C(=O)OC=C`, for which the figures for the Activity in the series with Ehrlich [2] and in the series with Ehrlich [6] were 37% and 0.9 mL, respectively. In series [7], this compound displayed an LD50 of 1500 µmol/kg. In addition, in the series with Ehrlich [4], the result was Active. For the same compound, the inhibition in vivo at 33 mg/kg in the series on Ehrlich [5] was determined as 69%.
Regarding `O=C(O)CCCNC(=O)OCc1ccccc1`, the Activity with Ehrlich [2] stood at 32.3%; in the series on Ehrlich [6], 0.8 mL. Also, the result in the series on Ehrlich [4] was Active. Also, the inhibition in vivo at 33 mg/kg in the series with Ehrlich [5] amounted to 71%.
For the compound `C=COC(=O)[C@H](Cc1ccccc1)NS(=O)(=O)c1ccc(C)cc1`, the Activity was 19.2% in the series on Ehrlich [2] and 3.8 mL in the series on Ehrlich [6]. Further, the inhibition in vivo at 33 mg/kg with Ehrlich [5] is 56.8%.
For `Cc1ccc(S(=O)(=O)N[C@@H](Cc2ccccc2)C(=O)CCl)cc1` [TPCK], in that order: 0.05%, 0.01 mL and 100%.
On to `Cc1ccc(S(=O)(=O)N[C@@H](Cc2ccccc2)C(=O)OCC#N)cc1`, for which the Activity is 3.4% in the series on Ehrlich [2] and 0.4 mL in the series with Ehrlich [6]. For the same compound, the inhibition in vivo at 33 mg/kg with Ehrlich [5] turned out to be 97%.
The matching figures for `N#CCOC(=O)[C@H](CCC(N)=O)NC(=O)OCc1ccccc1`: 40%, 2 mL and 51%.
Take `O=C(O)[C@@H]1CCCN1C(=O)OCc1ccccc1`: the Activity with Ehrlich [2] came to 32%; in the series with Ehrlich [6], 1.9 mL. The outcome in the series on Ehrlich [4] was Active. The inhibition in vivo at 33 mg/kg in the series with Ehrlich [5] was determined as 53%.
For `O=C(O)CC[C@H](NC(=O)OCc1ccccc1)C(=O)O`, the Activity in the series on Ehrlich [2] worked out at 28%; in the series on Ehrlich [6], 0.7 mL. Besides, in series [7], the LD50 turned out to be 1780 µmol/kg. Also, the outcome with Ehrlich [4] was Active. In addition, the inhibition in vivo at 33 mg/kg in the series on Ehrlich [5] was 81%.
With `O=C(O)CCCCCNC(=O)OCc1ccccc1`, the Activity came to 33% with Ehrlich [2] and 1 mL in the series on Ehrlich [6]. Also, the result in the series on Ehrlich [4] was Active. Moreover, in the series with Ehrlich [5], the inhibition in vivo at 33 mg/kg worked out at 63%.
For `C=COC(=O)CCCCCNC(=O)OCc1ccccc1`, in that order: 36%, 0.6 mL, “Active” and 75%.
Take `C=COC(=O)[C@H](Cc1ccccc1)NC(=O)OCc1ccccc1`: the Activity in the series with Ehrlich [2] worked out at 0.4%; in the series with Ehrlich [6], 0.1 mL. Besides, in series [7], the LD50 was more than 6150 µmol/kg. Further, the outcome in the series with Ehrlich [4] was Active. Besides, the inhibition in vivo at 33 mg/kg in the series with Ehrlich [5] came to 99.9%.
For the compound `O=c1[nH]cc(F)c(=O)[nH]1` [FLUOROURACIL], the T/C in the series with P388 [1] is given as 136%. Further, the Survival with P388 [3] came to 11 days.
Regarding `O=C(CCCCCNC(=O)OCc1ccccc1)OC(Br)CBr` (centres undefined), the Activity in the series with Ehrlich [2] came out at 30%; in the series on Ehrlich [6], 1.7 mL. Also, the inhibition in vivo at 33 mg/kg in the series on Ehrlich [5] is 50%.
As for `N#CCOC(=O)[C@H](Cc1c[nH]c2ccccc12)NC(=O)OCc1ccccc1`, the Activity in the series with Ehrlich [2] worked out at 19.7%; in the series with Ehrlich [6], 4.3 mL. The outcome in the series with Ehrlich [4] was Active. Moreover, the inhibition in vivo at 33 mg/kg with Ehrlich [5] came out at 38%.
For `C=COC(=O)[C@H](Cc1ccccc1)NC(=O)c1ccccc1`, in that order: 9.8%, 2.1 mL, “Active” and 56.8%.
For `C=COC(=O)[C@H](Cc1ccc(O)cc1)NS(=O)(=O)c1ccc(C)cc1`, in that order: 17.5%, 1.9 mL, “Active” and 75%.
As to `CC(C)C[C@H](NC(=O)OCc1ccccc1)C(=O)OCC#N`, the results for the Activity in the series on Ehrlich [2] and with Ehrlich [6] were 38% and 2.7 mL, respectively. In addition, the result in the series on Ehrlich [4] was Active. For the same compound, the inhibition in vivo at 33 mg/kg with Ehrlich [5] came to 27%.
For `C#CCOC(=O)CNC(=O)OCc1ccccc1`, in that order: 27%, 5.2 mL, “Active” and 0%.
Take `C=COC(=O)CNC(=O)OCc1ccccc1`: the values for the Activity in the series on Ehrlich [2] and with Ehrlich [6] were 34% and 1.5 mL, respectively. In addition, the LD50 in series [7] was 2130 µmol/kg. Moreover, in the series on Ehrlich [4], the result was Active. Moreover, in the series with Ehrlich [5], the inhibition in vivo at 33 mg/kg turned out to be 63%.
For the compound `C#CCOC(=O)C[C@H](NC(=O)OCc1ccccc1)C(=O)OCC#C`, the Activity in the series with Ehrlich [2] is 21%; in the series on Ehrlich [6], 3.7 mL. Moreover, the result in the series with Ehrlich [4] was Active. Moreover, the inhibition in vivo at 33 mg/kg with Ehrlich [5] was 31%.
Turning to `O=C(O)CNC(=O)OCc1ccccc1`, the Activity stood at 22% in the series with Ehrlich [2] and 0.2 mL in the series on Ehrlich [6]. Also, in the series on Ehrlich [5], the inhibition in vivo at 33 mg/kg came out at 97%.
For `N#CCOC(=O)C[C@H](NC(=O)OCc1ccccc1)C(=O)OCC#N`, in that order: 33%, 4.7 mL and 7%.
In the case of `O=C(OC(Br)CBr)[C@@H]1CCCN1C(=O)OCc1ccccc1` (some centres undefined), the Activity in the series with Ehrlich [2] stood at 10%; in the series on Ehrlich [6], 2.1 mL. The same compound showed an LD50 in series [7] of 190 µmol/kg. In the series on Ehrlich [4], the outcome was Active. In addition, in the series with Ehrlich [5], the inhibition in vivo at 33 mg/kg was determined as 84%.
Regarding `C=COC(=O)[C@@H]1CCCN1C(=O)OCc1ccccc1`, the values for the Activity in the series with Ehrlich [2] and in the series with Ehrlich [6] were 35% and 1 mL, respectively. Also, the LD50 in series [7] came to 1820 µmol/kg. In the series on Ehrlich [5], the inhibition in vivo at 33 mg/kg turned out to be 73%.
`C=COC(=O)[C@H](Cc1ccc(O)cc1)NC(=O)OCc1ccccc1`: the Activity was found to be 29.7% with Ehrlich [2] and 3.9 mL in the series on Ehrlich [6]. Also, the outcome in the series with Ehrlich [4] was Active. In the series with Ehrlich [5], the inhibition in vivo at 33 mg/kg turned out to be 16%.
As to `Cc1ccc(S(=O)(=O)N[C@@H](Cc2ccc(O)cc2)C(=O)OCC#N)cc1`, the results for the Activity with Ehrlich [2] and with Ehrlich [6] were 15.8% and 3.8 mL, respectively. In series [7], this compound showed an LD50 of 220 µmol/kg. Also, in the series on Ehrlich [5], the inhibition in vivo at 33 mg/kg was 56%.
Turning to `N#CCOC(=O)[C@H](Cc1ccc(O)cc1)NC(=O)OCc1ccccc1`, the Activity amounted to 31.1% with Ehrlich [2] and 4.5 mL in the series with Ehrlich [6]. Moreover, the outcome with Ehrlich [4] was Active. For the same compound, the inhibition in vivo at 33 mg/kg with Ehrlich [5] turned out to be 0%.
For the compound `N#CCOC(=O)CCCNC(=O)OCc1ccccc1`, the Activity came out at 48.8% in the series with Ehrlich [2] and 0.6 mL in the series with Ehrlich [6]. The inhibition in vivo at 33 mg/kg in the series with Ehrlich [5] came to 71%.
Consider `N#CCOC(=O)CCCCCNC(=O)OCc1ccccc1`, for which the Activity was found to be 41% with Ehrlich [2] and 1 mL in the series with Ehrlich [6]. For the same compound, the outcome with Ehrlich [4] was Active. Also, the inhibition in vivo at 33 mg/kg in the series on Ehrlich [5] was determined as 54%.
For `C=COC(=O)CCCNC(=O)OCc1ccccc1`, in that order: 39.5%, 3.2 mL, “Active” and 6%.
With `C=COC(=O)[C@H](CC(C)C)NC(=O)OCc1ccccc1`, the figures for the Activity in the series on Ehrlich [2] and with Ehrlich [6] were 38% and 0.9 mL, respectively. The outcome in the series on Ehrlich [4] was Active. Moreover, the inhibition in vivo at 33 mg/kg in the series with Ehrlich [5] stood at 48%.
In the case of `O=C(N[C@@H](Cc1ccccc1)C(=O)OC(Br)CBr)OCc1ccccc1` (some centres undefined), the Activity was determined as 1.4% with Ehrlich [2] and 0 mL in the series with Ehrlich [6]. For the same compound, in the series on Ehrlich [4], the result was Active. Besides, in the series with Ehrlich [5], the inhibition in vivo at 33 mg/kg came to 100%.
The matching figures for `N#CCOC(=O)CNC(=O)OCc1ccccc1`: 44.7%, 2.2 mL, “Active” and 29%.
For `N#CCOC(=O)[C@H](Cc1ccccc1)NC(=O)OCc1ccccc1`, the Activity came to 0.1% in the series with Ehrlich [2] and 0.2 mL in the series with Ehrlich [6]. Moreover, the result in the series with Ehrlich [4] was Active. The inhibition in vivo at 33 mg/kg in the series with Ehrlich [5] stood at 99.9%.
In the case of `N#CCOC(=O)CC[C@H](NC(=O)OCc1ccccc1)C(=O)OCC#N`, the Activity in the series with Ehrlich [2] turned out to be 32%; in the series on Ehrlich [6] it was 3.2 mL. In addition, the result in the series with Ehrlich [4] was Active. The inhibition in vivo at 33 mg/kg in the series with Ehrlich [5] worked out at 35%.
